Measured values published in patent US5955493A, “Thiamorphinans with neuroprotective activity” (priority 1995, dated 1999).

Columns and labels:
NMDA-induced convulsion = assay: Inhibition of NMDA-induced convulsion (i.c.v. coinjection); format: in vivo, Male Swiss Webster mice
Procedure: Male Swiss Webster mice [(SW) fBR] 20-25 g (Canadian Breading Farms St. Constant, Quebec), were coinjected intracerebroventricullarly (i.c.v.) with various doses of test compound and NMDA (1 and 2 nmol; Sigma Chemical Co., St. Louis, Mo.) in total volume of 10 μl. […] The convulsive response to NMDA was within 5 minutes of injection, characterized by wild running, popcorn jumping and myoclonic seizures (i.e. repetitive movements involving all limbs simultaneously, usually accompanied by loss of righting reflex). A minimum of 15 animals were used in each treatment group. The number of mice convulsing in each group was recorded. The dose producing convulsions in 50% of the mice (CD50) was calculated by the method of Litchfield and Wilcoxon ("Manual and Pharmacological Calculations with Computer Programs", 2nd ed., Springer, N.Y., 1987).

Mice [1] = assay: Rotarod test (motor effects); format: in vivo; details: i.c.v.; for Max. % mice showing motor effect: rotarod 8 revolutions per min, *P ≤ 0.05 as compared with control
Source text: The rotarod treadmill for mice (model 7600, UGO Basile, Italy) was used to assess the motor effects of the test compounds. The method used was similar to the procedure described by Dunham and Miya (J. Am. Pharmac. Assoc., 1957, 46:208). The apparatus consisted of a rod with a diameter of 2.5 cm which was suspended horizontally 50 cm above a plain working area. The rod was turned at a speed of 8 revolutions per min. Circular perspex separators were placed at intervals along the rod so that five animals could be tested at the same time. Before administering any compound, all tested mice were placed on the turning rod for 1 min on two consecutive days. Mice that fell from the rod during this test were excluded. The test compounds were administered i.c.v. and the % of mice showing motor effects was monitored.

Mice [2] = assay: Locomotion and falling behavior; format: in vivo; details: i.c.v.; for % mice showing significant effect (falling): at min. dose for falling; for % mice showing significant effect (locomotion): at min. dose for locomotion; for min. dose for falling / min. dose for locomotion: observed 15 to 30 min after injection
Procedure: Mice were placed individually in observation cages for a 60 minute habituation period, injected i.c.v. with the different compounds and observed from 15 to 30 min. after injection. Locomotion and falling behavior were assessed according to the procedure of Koek and Colpaert (J. Pharm. Exp. Ther., 1990, 252:349). For each mouse the presence of locomotion (locomotion with all four legs moving for at least 15 seconds) and falling behavior (falling from rearing or standing position backward or to the side) was recorded. Statistical significance of drug-induced changes in the occurrence of a particular behavior was tested by the method of Fray et al […].

AMPA-induced convulsions = assay: Inhibition of AMPA-induced convulsions; format: in vivo, Male Swiss Webster mice; details: i.c.v.
Procedure: Male Swiss Webster mice [(SW) fBR]20-25 g, were coinjected intracerebroventricullarly (i.c.v.) with various doses of test compounds, α- and β-sulfallorphan, […]; Research Biochemical Inc.) kainic acid (0.25-0.75 nmol; Sigma Chemical Co.) and biculline (1-10 nmol; Research Biochemical Inc.) in total volume of 10 μl. […] The convulsive response to the AMPA, kainic acid and biculline was within 5 minutes of injection, characterized by wild running, popcorn jumping and myoclonic seizures (i.e. repetitive movements involving all limbs simultaneously, usually accompanied by loss of righting reflex). A minimum of 15 animals were used in each treatment group. The number of mice convulsing in each group was recorded. The dose producing convulsions in 50% of the mice (CD50) was calculated by the method of Litchfield and Wilcoxon. LD50, the dose producing mortality in 50% of the mice, was determined by Fisher's exect test. The results for both α- and β-sulfallorphan are summarized below in tables II and III.

[3] = system: Kainic acid-induced convulsions; assay: Inhibition of kainic acid-induced convulsions; format: in vivo, Male Swiss Webster mice; details: i.c.v.
Procedure: (§1) Male Swiss Webster mice [(SW) fBR]20-25 g, were coinjected intracerebroventricullarly (i.c.v.) with various doses of test compounds, α- and β-sulfallorphan, with AMPA (0.25-2.0) nmol; Research Biochemical Inc.) kainic acid (0.25-0.75 nmol; Sigma Chemical Co.) and biculline (1-10 nmol; Research Biochemical Inc.) in total volume of 10 μl. […] The convulsive response to the AMPA, kainic acid and biculline was within 5 minutes of injection, characterized by wild running, popcorn jumping and myoclonic seizures (i.e. repetitive movements involving all limbs simultaneously, usually accompanied by loss of righting reflex). A minimum of 15 animals were used in each treatment group. The number of mice convulsing in each group was recorded. The dose producing convulsions in 50% of the mice (CD50) was calculated by the method of Litchfield and Wilcoxon. LD50, the dose producing mortality in 50% of the mice, was determined by Fisher's exect test. The results for both α- and β-sulfallorphan are summarized below in tables II and III.

[4] = system: Bicuculline-induced convulsions; assay: Inhibition of bicuculline-induced convulsions; format: in vivo, Male Swiss Webster mice; details: i.c.v.
Procedure: as §1

SMILES	CD50 (NMDA-induced convulsion; 1 nmol NMDA)	Max. % mice showing motor effect (Mice [1])	CD50 (NMDA-induced convulsion; 2 nmol NMDA)	further results
C=CC[S+]1CC[C@]23CCCC[C@H]2[C@H]1Cc1ccc(O)cc13 (relative stereo) [compound 12, 3-hydroxy-17-deaza-17-allylthionium-17-thiamorphinan]	0.07 nmol/mouse	–	–	–
CC(C)=CC[S+]1CC[C@]23CCCC[C@H]2[C@H]1Cc1ccc(O)cc13 (relative stereo) [compound 13, 3-hydroxy-17-deaza-17-dimethylallylthionium-17-thiamorphinan]	0.19 nmol/mouse	0%	–	–
Oc1ccc2c(c1)[C@@]13CCCC[C@H]1[C@@H](C2)[S+](CCc1ccccc1)CC3 (relative stereo) [compound 14, 3-hydroxy-17-deaza-17-phenethylthionium-17-thiamorphinan]	0.99 nmol/mouse	20%	–	–
C[S+]1CC[C@]23CCCC[C@H]2[C@H]1Cc1ccc(O)cc13 (relative stereo) [compound 17, 3-hydroxy-17-deaza-17-methylthionium-17-thiamorphinan]	0.02 nmol/mouse	60%	–	–
C[C@]12N[C@H](Cc3ccccc31)c1ccccc12 [MK-801]	–	–	–	% mice showing significant effect (falling) (Mice [2]): 50%; % mice showing significant effect (locomotion) (Mice [2]): 30%; min. dose for falling (Mice [2]): 1.50 nmol/mouse; min. dose for locomotion (Mice [2]): 0.25 nmol/mouse
C=CCN1CC[C@@]23CCCC[C@@H]2[C@@H]1Cc1ccc(O)cc13 [dextrallorphan]	2.68 nmol/mouse	–	43.2 nmol/mouse	–
COc1ccc2c(c1)[C@]13CCCC[C@@H]1[C@H](C2)N(C)CC3 [dextromethorphan]	–	–	–	% mice showing significant effect (falling) (Mice [2]): 27%; % mice showing significant effect (locomotion) (Mice [2]): 30%; min. dose for falling (Mice [2]): 0.20 nmol/mouse; min. dose for locomotion (Mice [2]): 0.10 nmol/mouse
CN1CC[C@@]23CCCC[C@@H]2[C@@H]1Cc1ccc(O)cc13 [dextrorphan, reference compound]	0.55 nmol/mouse	60%	> 100 nmol/mouse	motor effect (statement) (Mice [1]; α-sulfallorphan 30 nmol/mouse, dextrorphan 60 nmol/mouse): induces a significant rise in motor effect
C=CCN1CC[C@]23CCCC[C@H]2[C@H]1Cc1ccc(O)cc13 [levallorphan]	1.06 nmol/mouse	–	> 20 nmol/mouse	–
CN1CC[C@]23CCCC[C@H]2[C@H]1Cc1ccc(O)cc13 [levorphanol]	0.21 nmol/mouse	–	> 200 nmol/mouse	–
C=CC[S+]1CC[C@]23CCCC[C@H]2[C@H]1Cc1ccc(O)cc13 (stereo partly drawn) [β-sulfallorphan 16, 3-hydroxy-17-deaza-17-allylthionium-17-thiamorphinan]	0.015 nmol/mouse	20%	0.28 nmol/mouse	CD50 (AMPA-induced convulsions; CD50 of AMPA (0.25-5 nmol/mouse) with 0.4 nmol/mouse β-sulfallorphan): 0.29 nmol/mouse; LD50 (AMPA-induced convulsions; LD50 of AMPA (0.25-5 nmol/mouse) with 0.4 nmol/mouse β-sulfallorphan, none = no mortality observed at dose tested): none; CD50 ([3]; CD50 of kainic acid (0.25-0.72 nmol/mouse) with 0.4 nmol/mouse β-sulfallorphan): 0.39 nmol/mouse; LD50 ([3]; LD50 of kainic acid (0.25-0.72 nmol/mouse) with 0.4 nmol/mouse β-sulfallorphan, none = no mortality observed at dose tested): none; CD50 ([4]; CD50 of bicuculline (1-10 nmol/mouse) with 0.4 nmol/mouse β-sulfallorphan): 3.12 nmol/mouse; LD50 ([4]; LD50 of bicuculline (1-10 nmol/mouse) with 0.4 nmol/mouse β-sulfallorphan, none = no mortality observed at dose tested): none; % mice showing significant effect (locomotion) (Mice [2]): 20%; locomotion and falling behavior (statement) (Mice [2]): less locomotion than dextromethorphan and required greater amount to exhibit a significant effect; min. dose for falling (Mice [2]): no effect; min. dose for locomotion (Mice [2]): 1.25 nmol/mouse
